Series [1] concerns nicotine dependence / nicotine withdrawal symptoms. Briefly: smoking cessation: nicotine dependence and withdrawal symptoms in individuals attempting to stop smoking. Type of series: in vivo, human. The settings on record: transdermal device of Example 1, 20 cm^2, changed once a day for 21 days; five individuals. On the procedure: Transdermal delivery devices are prepared as described in Example 1.

The test system of the next series is depression. Put plainly: treatment of out-patients with clinically assessed depression. Type of series: in vivo, human. The settings on record: transdermal device of Example 6, daily for four weeks; twenty out-patients in two groups. On the procedure:
Transdermal delivery devices are prepared as described in Example 6. Twenty out-patients comprised of both males and females and suffering from clinically assessed depression are divided into two groups.

Another series concerns premenstrual syndrome. Put plainly: treatment of women suffering from premenstrual syndrome. Type of series: in vivo, human. To be noted: transdermal device of Example 6, five days preceding the onset of menstruation; eight women.
Series [2] relates to psychogenic symptomatologies. To be noted: oral; anxiety, depression, panic disorders, nicotine dependence and others; cited from earlier work.
The next series in a line: clinical. The settings on record: human, in vivo.
The conditions of series [3]: in vivo, po; cited from earlier work.
Series [4] can be described thus: examination of patch for recrystallization after 24 months storage. To be noted: Example 2 matrix patch (polyvinylacetate, isocetyl alcohol). It counts as physicochemical. How it is done:
The matrix layer mixture is slot die coated onto the backing layer. To do this, the mixture is allowed to flow through a slot to form a thin coat of a desired thickness, containing approximately 20 mg/cm^2 of the mixture, which is deposited onto a layer of polyester film laminate backing layer (ScotchPak 1012, 3M Corporation, St. Paul, Minn.).
A layer of double-sided pressure-sensitive polyacrylate adhesive and a layer of silicone coated polyester release liner are laminated to the face of the matrix facing away from the backing layer to form a quadruple laminate of backing layer/buspirone loaded matrix layer/pressure-sensitiveadhesive layer/release liner (peel strip) layer. […] For use, one transdermal buspirone delivery device is removed from its packet, the release liner (peel strip) layer is removed and discarded, and the pressure-sensitive adhesive layer is applied firmly to the patient's arm.

Structures are written as SMILES.

As usually defined, the Tmax is the time at which the peak concentration occurs. What is called AUC is the area under the concentration-time curve, a measure of exposure. A high value points to more exposure. One may read the Cmax as the peak of the concentration-time curve.

Regarding `O=C1CC2(CCCC2)CC(=O)N1CCCCN1CCN(c2ncccn2)CC1` [buspirone], in series [1], the nicotine dependence result was “decrease in nicotine dependence”; the “symptoms including drowsiness, restlessness, headache, irritability, inability to concentrate, and increased appetite” value is reported as “decrease in symptoms”. The “improvement of depression versus placebo patches” value in the series with depression was “significant improvement”. Further, in the series on premenstrual syndrome, the premenstrual syndrome symptoms result is listed as “decrease in their symptoms”. Besides, in series [2], the “clinical response of psychogenic symptomatologies” value is on record as “responsive to oral buspirone”. Besides, in the series “clinical” (po), the Tmax is 0.8 h. Besides, in “clinical” (topical or ocular), the AUC was 12.7 ng·h/mL, the Cmax amounted to 0.79 ng/mL and the Tmax was 16.5 h. Besides, the “absorption from the gastrointestinal tract” value in series [3] is reported as “poorly absorbed”.

As for `O=C1c2ccccc2S(=O)(=O)N1CCCCN1CCN(c2ncccn2)CC1` [ipsapirone], the “recrystallization in patch on storage” value in series [4] is on record as “no recrystallization”.

These data come from patent US5633009A, “Transdermal administration of azapirones” (Sano Corporation, priority 1993, dated 1997).
